Test results reported in article PMC7195332 (Bioorganic & Medicinal Chemistry Letters, 2019).

Assays:
[1] = biological target: CypD (30-207 aa, human recombinant) (Homo sapiens, UniProt P30405); experiment: Cyclophilin D biochemical FP assay; type: binding; conditions: for Biochemical CypD FP assay LE: ligand binding efficiency based on biochemical FP IC50s
[2] = biological target: Recombinant human Cyclophilin D protein (amino acids 44-207, K175I) (Homo sapiens, UniProt P30405, K175I); experiment: CypD SPR binding assay; conditions: for CypD LE (ligand binding efficiency based on the SPR KDs): fragment hits; for SPR binding CypD LE: ligand binding efficiency based on SPR KDs
Chain of Recombinant human Cyclophilin D protein (amino acids 44-207, K175I) (P30405 44-207 K175I): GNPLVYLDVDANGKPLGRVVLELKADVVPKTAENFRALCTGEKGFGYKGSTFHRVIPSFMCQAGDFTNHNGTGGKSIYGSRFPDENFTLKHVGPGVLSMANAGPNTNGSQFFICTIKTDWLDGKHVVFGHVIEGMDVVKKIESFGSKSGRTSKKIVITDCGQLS

Chain of CypD (30-207 aa, human recombinant) (P30405 30-207): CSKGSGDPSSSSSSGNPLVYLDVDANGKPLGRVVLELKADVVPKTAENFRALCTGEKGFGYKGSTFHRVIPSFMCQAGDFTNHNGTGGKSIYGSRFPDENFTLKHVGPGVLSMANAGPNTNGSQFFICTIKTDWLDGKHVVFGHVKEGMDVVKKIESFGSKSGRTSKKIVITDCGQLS

**Q.** With `CSc1ccccc1[C@H]1CCCN1C(=O)CNC(=O)NCc1ccc(N)cc1` [compound 2, reference compound] as the compound, how does the IC50 [1] read?
**A.** 0.75 µM

**Q.** And the Kd [2]?
**A.** 0.23 µM

**Q.** Which “CypD LE (ligand binding efficiency based on the SPR KDs)” value [2] does the source give for `O[C@@H]1CO[C@@H]2C[C@H]1Nc1ccc(F)cc12` [compound 3] here?
**A.** 0.2

**Q.** With `CCN1Cc2cc3c(cc2NCCC1=O)OCO3` [compound 4] as the compound, how does the “CypD LE (ligand binding efficiency based on the SPR KDs)” value [2] read?
**A.** 0.16

**Q.** Which “CypD LE (ligand binding efficiency based on the SPR KDs)” value [2] does the source give for `CCn1nnc(NC(=O)c2ccccc2)n1` [compound 6] here?
**A.** 0.21

**Q.** With `O=C(NCc1ccccn1)C(=O)NC1CCCC1` [compound 8] as the compound, how does the “CypD LE (ligand binding efficiency based on the SPR KDs)” value [2] read?
**A.** 0.22

**Q.** How did the IC50 [1] turn out when `CSc1ccccc1[C@H]1CCCN1C(=O)CN(C)C(=O)NCc1ccc2c(c1)[C@H]1C[C@@H](N2)[C@H](O)CO1` [compound 18] was run?
**A.** 10 µM

**Q.** With `CSc1ccccc1[C@H]1CCCN1C(=O)CNC(=O)CCc1ccc2c(c1)[C@@H]1C[C@H](N2)[C@H](O)CO1` [compound 19] as the compound, how does the IC50 [1] read?
**A.** 54 µM

**Q.** What does the source list for `CCN1Cc2cc(CNC(=O)NCC(=O)N3CCC[C@@H]3c3ccccc3SC)ccc2NCCC1=O` [compound 20]?
**A.** IC50 [1]: 0.19 µM; SPR binding CypD LE [2]: 0.25

**Q.** With `CCN1Cc2cc(NC(=O)NCC(=O)N3CCC[C@@H]3c3ccccc3SC)ccc2NCCC1=O` [compound 21] as the compound, how does the IC50 [1] read?
**A.** > 100 µM

**Q.** What about the “SPR binding CypD LE” value [2] of the same compound?
**A.** 0.13

**Q.** `CCN1Cc2cc(CCC(=O)NCC(=O)N3CCC[C@@H]3c3ccccc3SC)ccc2NCCC1=O` [compound 22] was tested. Which IC50 [1] did it give?
**A.** 4.1 µM

**Q.** What about the “Biochemical CypD FP assay LE” value [1] of the same compound?
**A.** 0.21

**Q.** What about the “SPR binding CypD LE” value [2] of the same compound?
**A.** 0.21

**Q.** For `CCN1Cc2cc(CCC(=O)NCCC(=O)N3CCC[C@@H]3c3ccccc3SC)ccc2NCCC1=O` [compound 23], which IC50 [1] is on record?
**A.** > 100 µM

**Q.** And the “SPR binding CypD LE” value [2]?
**A.** 0.12

**Q.** With `O=C(NCc1ccc2c(c1)[C@H]1C[C@@H](N2)[C@H](O)CO1)C(=O)N1CCCC1` [compound 29] as the compound, how does the IC50 [1] read?
**A.** > 100 µM

**Q.** And the Kd [2]?
**A.** > 1500 µM

**Q.** With `O=C(NCc1ccc2c(c1)[C@@H]1C[C@H](N2)[C@H](O)CO1)C(=O)N1CCCC1` [compound 30] as the compound, how does the “Biochemical CypD FP assay LE” value [1] read?
**A.** 0.16

**Q.** What about the “SPR binding CypD LE” value [2] of the same compound?
**A.** 0.19

**Q.** Which results are given for `O=C(NCc1ccc2c(c1)[C@@H]1C[C@H](N2)[C@H](O)CO1)C(=O)NC1CCCC1` [compound 30]?
**A.** IC50 [1]: 870 µM; Kd [2]: 217 µM

**Q.** How did the IC50 [1] turn out when `CSc1ccccc1[C@H]1CCCN1C(=O)C(=O)NCc1ccc2c(c1)[C@H]1C[C@@H](N2)[C@H](O)CO1` [compound 31] was run?
**A.** > 100 µM

**Q.** And the “SPR binding CypD LE” value [2]?
**A.** 0.16

**Q.** For `CSc1ccccc1[C@@H]1CCCN1C(=O)C(=O)NCc1ccc2c(c1)[C@H]1C[C@@H](N2)[C@H](O)CO1` [compound 32], which IC50 [1] is on record?
**A.** > 30 µM

**Q.** `CCN1Cc2cc(CNC(=O)CN3C(=O)[C@@H]4[C@H]5CC[C@H](C5)[C@@H]4C3=O)ccc2NCCC1=O` [compound 34] was tested. Which IC50 [1] did it give?
**A.** 80 µM

**Q.** What about the “Biochemical CypD FP assay LE” value [1] of the same compound?
**A.** 0.18

**Q.** What about the Kd [2] of the same compound?
**A.** 51 µM

**Q.** With `CCN1Cc2cc(NC(=O)CN3C(=O)C4C(C3=O)[C@H]3CC[C@@H]4C3)ccc2NCCC1=O` (stereo partly drawn) [compound 35] as the compound, how does the IC50 [1] read?
**A.** > 1000 µM

**Q.** `Nc1ccc(CCNC(=O)CN2C(=O)C3C4CCC(C4)C3C2=O)cc1` (stereo not drawn) [compound 37] was tested. Which IC50 [1] did it give?
**A.** 490 µM

**Q.** What about the “Biochemical CypD FP assay LE” value [1] of the same compound?
**A.** 0.18

**Q.** Which “potency improvement compared with 36” value [1] does the source give for `O=C(CN1C(=O)C2C3CCC(C3)C2C1=O)NCc1ccc2c(c1)CCCN2` (stereo not drawn) [compound 38] here?
**A.** 2 fold

**Q.** What does the source list for `O=C(CN1C(=O)[C@@H]2[C@@H]3CC[C@@H](C3)[C@@H]2C1=O)NCc1ccc2c(c1)[C@H]1C[C@@H](N2)[C@H](O)CO1` [compound 39]?
**A.** IC50 [1]: 1.7 µM; Biochemical CypD FP assay LE [1]: 0.26; SPR binding CypD LE [2]: 0.26

**Q.** Which results are given for `O=C(CN1C(=O)[C@@H]2[C@H]3CC[C@H](C3)[C@@H]2C1=O)NCc1ccc2c(c1)[C@H]1C[C@@H](N2)[C@H](O)CO1` [compound 40, 2-(exo-3,5-Dioxo-4-aza-tricyclo[5.2.1.02,6]dec-4-yl)-N-((1R,9R,10S)-10-hydroxy-12-oxa-8-aza-tricyclo[7.3.1.02,7]trideca-2(7),3,5-trien-4-ylmethyl)-acetamide]?
**A.** IC50 [1]: 0.735 µM; Biochemical CypD FP assay LE [1]: 0.27; SPR binding CypD LE [2]: 0.25
